# From PubChem BioAssay AID328 (DTP/NCI, 2004)
# Several values for one entry are separate records, joined by “and”; a condition that tells them apart may be missing. Identical values can stand only once. Inconclusive results and toxic doses are left out.
# Tested on: BDF1 mice, P388 leukemia ip, median survival T/C
# Assay: NCI In Vivo Anticancer Drug Screen. Data for tumor model P388 Leukemia (intraperitoneal) in B6D2F1 (BDF1) mice
# Conditions: endpoint: median survival time, higher = longer survival
# How it was run: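 Mice carrying the transplantable tumour receive compound or vehicle. Survival is followed in each arm, and the treated measure is divided by the vehicle measure.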
# [1] = dose: 25.0 mg/kg/injection, schedule: Q01DX009 (ip), vehicle: saline with Tween-80
# [2] = dose: 100.0 mg/kg/injection, schedule: Q01DX009 (ip), vehicle: saline with Tween-80
# [3] = dose: 50.0 mg/kg/injection, schedule: Q01DX009 (ip), vehicle: saline
# [4] = dose: 100.0 mg/kg/injection, schedule: Q01DX009 (ip), vehicle: saline
# [5] = dose: 100.0 mg/kg/injection, schedule: Q04DX003 (ip), vehicle: saline
# [6] = dose: 200.0 mg/kg/injection, schedule: Q04DX003 (ip), vehicle: saline
# [7] = dose: 12.5 mg/kg/injection, schedule: Q01DX009 (ip), vehicle: saline with Tween-80
# [8] = dose: 50.0 mg/kg/injection, schedule: Q01DX009 (ip), vehicle: saline with Tween-80
# [9] = dose: 100.0 mg/kg/injection, schedule: Q04DX003 (ip), vehicle: saline with Tween-80
# [10] = dose: 200.0 mg/kg/injection, schedule: Q04DX003 (ip), vehicle: saline with Tween-80
# [11] = dose: 400.0 mg/kg/injection, schedule: Q01DX009 (ip), vehicle: saline with Tween-80
# [12] = dose: 400.0 mg/kg/injection, schedule: Q04DX003 (ip), vehicle: saline with Tween-80
# [13] = dose: 200.0 mg/kg/injection, schedule: Q01DX009 (ip), vehicle: saline with Tween-80
# [14] = dose: 12.5 mg/kg/injection, schedule: Q01DX009 (ip), vehicle: saline
# [15] = dose: 25.0 mg/kg/injection, schedule: Q01DX009 (ip), vehicle: saline
# [16] = dose: 66.0 mg/kg/injection, schedule: Q01DX009 (ip), vehicle: saline
# [17] = dose: 50.0 mg/kg/injection, schedule: Q04DX003 (ip), vehicle: saline
# [18] = dose: 20.0 mg/kg/injection, schedule: Q01DX009 (ip), vehicle: saline with Tween-80
structure (smiles),measurement,setting,value
COc1ccc(-c2csc(-c3ccccc3)n2)cc1N=Cc1ccc(N(CCCl)CCCl)c(OC)c1,T/C,"dose: 2.6 mg/kg/injection, schedule: Q04DX003 (ip), vehicle: saline with Tween-80",118 % of control
same,T/C,"dose: 4.0 mg/kg/injection, schedule: Q04DX003 (ip), vehicle: saline with Tween-80",122 % of control
same,T/C,"dose: 6.0 mg/kg/injection, schedule: Q04DX003 (ip), vehicle: saline with Tween-80",90 % of control
same,T/C,"dose: 13.0 mg/kg/injection, schedule: Q04DX003 (ip), vehicle: saline with Tween-80",190 % of control
same,T/C,"dose: 17.0 mg/kg/injection, schedule: Q01DX009 (ip), vehicle: saline with Tween-80",240 % of control
same,T/C,"dose: 20.0 mg/kg/injection, schedule: Q04DX003 (ip), vehicle: saline with Tween-80",204 % of control
same,T/C,[1],240 % of control
same,T/C,"dose: 30.0 mg/kg/injection, schedule: Q04DX003 (ip), vehicle: saline with Tween-80",271 % of control
same,T/C,"dose: 37.0 mg/kg/injection, schedule: Q01DX009 (ip), vehicle: saline with Tween-80",184 % of control
same,T/C,"dose: 44.0 mg/kg/injection, schedule: Q04DX003 (ip), vehicle: saline with Tween-80",242 % of control and 300 % of control
same,T/C,"dose: 67.0 mg/kg/injection, schedule: Q04DX003 (ip), vehicle: saline with Tween-80",272 % of control and 300 % of control
same,T/C,[2],87 % of control
CCCCCCCCCCCCCCCC[N+]1(C)CCN(SN2CC[N+](C)(CCCCCCCCCCCCCCCC)CC2)CC1,T/C,[3],100 % of control
same,T/C,[4],103 % of control
same,T/C,[5],104 % of control
same,T/C,[6],104 % of control
O=C(NNC(=O)OCc1ccccc1)OCc1ccccc1,T/C,"dose: 50.0 mg/kg/injection, schedule: Q01DX009 (ip), vehicle: Klucel (hydroxypropylcellulose) (HPC)",96 % of control
same,T/C,"dose: 100.0 mg/kg/injection, schedule: Q01DX009 (ip), vehicle: Klucel (hydroxypropylcellulose) (HPC)",96 % of control
same,T/C,"dose: 100.0 mg/kg/injection, schedule: Q04DX003 (ip), vehicle: Klucel (hydroxypropylcellulose) (HPC)",90 % of control
same,T/C,"dose: 200.0 mg/kg/injection, schedule: Q01DX009 (ip), vehicle: Klucel (hydroxypropylcellulose) (HPC)",92 % of control
same,T/C,"dose: 200.0 mg/kg/injection, schedule: Q04DX003 (ip), vehicle: Klucel (hydroxypropylcellulose) (HPC)",109 % of control
N=c1c(C(N)=O)cnc2n1CCCCC2,T/C,[5],109 % of control
CCCCCC#CC1OC1(C)C (stereo unspecified),T/C,[7],97 % of control and 100 % of control
same,T/C,[1],101 % of control and 103 % of control
same,T/C,[8],108 % of control and 116 % of control
same,T/C,[2],108 % of control and 117 % of control and 121 % of control
CCOC(=O)C(Cc1ccccc1Cl)(NC(C)=O)C(=O)OCC,T/C,[2],100 % of control
same,T/C,[9],90 % of control
same,T/C,[10],100 % of control
same,T/C,[11],90 % of control
same,T/C,[12],104 % of control
CC1(C)C(=O)C2(C(=O)O)CCC1C2 (stereo unspecified),T/C,[2],100 % of control
same,T/C,[9],95 % of control
same,T/C,[13],95 % of control
same,T/C,[10],109 % of control
same,T/C,[11],100 % of control
same,T/C,[12],100 % of control
CCCCCC(C[N+]1(C)CCOCC1)C(=O)/C=C/c1ccccc1 (stereo unspecified),T/C,[14],95 % of control
same,T/C,[15],120 % of control
same,T/C,[3],124 % of control
CCOC(=O)c1[nH]cnc1/N=N/N(C)CCO,T/C,"dose: 14.0 mg/kg/injection, schedule: Q01DX009 (ip), vehicle: saline",104 % of control
same,T/C,"dose: 21.0 mg/kg/injection, schedule: Q01DX009 (ip), vehicle: saline",100 % of control
same,T/C,[16],115 % of control
same,T/C,"dose: 264.0 mg/kg/injection, schedule: Q01DX009 (ip), vehicle: saline with Tween-80",113 % of control
same,T/C,"dose: 600.0 mg/kg/injection, schedule: Q01DX009 (ip), vehicle: saline with Tween-80",118 % of control
same,T/C,"dose: 600.0 mg/kg/injection, schedule: Q01DX009 (ip), vehicle: saline",163 % of control
O=C1C=C(c2ccccc2)C(O)(c2ccccc2)C1 (stereo unspecified),T/C,[2],102 % of control
same,T/C,[13],88 % of control
O=C(c1cc(Cl)cc(Cl)c1)N1CC1,T/C,[15],106 % of control
same,T/C,"dose: 25.0 mg/kg/injection, schedule: Q04DX003 (ip), vehicle: saline",100 % of control
same,T/C,[3],113 % of control
same,T/C,[17],100 % of control
same,T/C,[4],103 % of control
same,T/C,[5],98 % of control
same,T/C,"dose: 200.0 mg/kg/injection, schedule: Q01DX009 (ip), vehicle: saline",113 % of control
same,T/C,[6],114 % of control
same,T/C,"dose: 400.0 mg/kg/injection, schedule: Q01DX009 (ip), vehicle: saline",113 % of control
same,T/C,"dose: 400.0 mg/kg/injection, schedule: Q04DX003 (ip), vehicle: saline",106 % of control
OCCCN1CCC2(CC1)SSC1(CCN(CCCO)CC1)S2,T/C,[17],95 % of control
same,T/C,[5],100 % of control and 109 % of control
same,T/C,[6],100 % of control and 104 % of control
C=C1C(=O)OC2/C=C(\C)CC(O)/C=C(\C)CC(OC(=O)/C(=C\C)COC(C)=O)C12 (stereo unspecified),T/C,"dose: 20.0 mg/kg/injection, schedule: Q01DX009 (ip), vehicle: saline",122 % of control
same,T/C,"dose: 44.0 mg/kg/injection, schedule: Q01DX009 (ip), vehicle: saline",150 % of control
same,T/C,[16],122 % of control
CNC1=C(N2CC2)C(=O)C(NC)=C(N2CC2)C1=O,T/C,"dose: 0.05 mg/kg/injection, schedule: Q01DX009 (ip), vehicle: saline",159 % of control
same,T/C,"dose: 0.1 mg/kg/injection, schedule: Q01DX009 (ip), vehicle: saline",151 % of control and 169 % of control
same,T/C,"dose: 0.2 mg/kg/injection, schedule: Q01DX009 (ip), vehicle: saline",195 % of control
CCN1CCC(OC(=O)c2ccccc2)(c2nccc3ccccc23)CC1,T/C,[7],102 % of control
same,T/C,[1],111 % of control
same,T/C,[8],124 % of control
N#CC12CC3CC(CC(C3)C1)C2,T/C,"dose: 5.0 mg/kg/injection, schedule: Q01DX009 (ip), vehicle: saline with Tween-80",100 % of control
same,T/C,[18],88 % of control
O=[N+]([O-])c1ccc(/C=C2\c3ccccc3-c3nc4ccccc4nc32)cc1,T/C,"dose: 150.0 mg/kg/injection, schedule: Q01DX001 (ip), vehicle: other",118 % of control
same,T/C,"dose: 300.0 mg/kg/injection, schedule: Q01DX001 (ip), vehicle: other",86 % of control
CN1CCN(C(=O)N2c3ccccc3Sc3ccccc32)CC1,T/C,[14],100 % of control
same,T/C,[15],110 % of control
same,T/C,[3],100 % of control
same,T/C,[6],100 % of control
C(/C=C\C=C/Nc1ccccc1)=Nc1ccccc1,T/C,"dose: 10.0 mg/kg/injection, schedule: Q01DX009 (ip), vehicle: saline with Tween-80",100 % of control
same,T/C,[18],91 % of control
same,T/C,"dose: 40.0 mg/kg/injection, schedule: Q01DX009 (ip), vehicle: saline with Tween-80",89 % of control
